Experimental data from patent US20230151065A1, “MULTI-DISULFIDE-BOND LONG-CHAIN PEPTIDE WITH NEURO[…], PHARMACEUTICAL COMPOSITION AND APPLICATION” (priority 2018, published 2023).

What was measured:
[1] = test system: primary cultured hippocampal neurons damaged by NMDA; assay: NMDA damage of primary cultured hippocampal neurons, MTT viability; assay type: cell-based, SD (Sprague-Dawley) rat; conditions: for hippocampal neuron activity after NMDA damage (MTT): MK801 10 μM
Excerpt: (1) Establishment of NMDA damage model. Primary culture of hippocampal neurons: SD (Sprague-Dawley) female rats pregnant for 18-19 days were anesthetized with a compound anaesthetic agent; fetal rat brains were taken under aseptic conditions and placed in HBSS solution (8.4 g/L of NaCl, 0.224 g/L of KCl, 2.38 g/L of HEPES, 500,000 units of penicillin sodium and 500,000 units of kanamycin sulfate; the pH was adjusted to 7.1-7.2 with 1M NaOH; then the osmotic pressure was adjusted to about 290±10 m Osm with ultrapure water; and after filtration, the solution was stored at 4° C.); the meninges were removed under a stereoscopic dissecting microscope; the bilateral hippocampus was removed and digested in 0.125% pancreatic protease at 37° C. for 10 min; and complete media (90% DMEM medium+10% FBS) (FBS: fetal bovine serum) was used to terminate the digestion; the bilateral hippocampus was washed for 3 times with the complete media to make a single cell suspension; the cell density was adjusted to about 7-8×10^5/ml; and the bilateral hippocampus was inoculated to a 6-well/96-well cell culture plate/60 mm culture dish/slide coated with L-polylysine. After 24 hours, the media were changed to serum-free neurobasal media (GIBCO) which were then placed in a 5% CO2, 37° C. incubator for culture; and half of the solution was changed every three days.
(2) NMDA damage treatment of hippocampal neurons: (1) The original media were sucked out and the cells were washed with magnesium-free extracellular fluid for three times, each for 5 minutes. (2) 10 mM NMDA (N-methyl-D-aspartic acid) and 10 mM Gly (glycine) were prepared with magnesium-free extracellular fluid, and NMDA was prepared to different concentrations with the magnesium-free extracellular fluid, wherein the final concentration of Gly was 10 μM. […] After damage, the cells were washed for three times with DMEM medium, each for 5 minutes. (3) The original culture media were re-added to continue for culturing for 24 hours.
(3) Detection of viability of hippocampal neurons after NMDA damage: (1) The hippocampal neurons were inoculated into a 96-well culture plate at 8×10^5 cells/ml, 0.1 ml per well, and cultured in a 5% CO2 incubator for 7-8 days. (2) After NMDA damage treatment and continuous culture for 24 hours, the culture solution was sucked off. (3) 100 μl of DMEM culture medium containing MTT (3-(4,5-dimethylthiazole-2)-2,5-diphenyltetrazolium bromide, 0.5 mg/ml) was added to each well, and the culture plate was put into 37° C., 5% CO2 incubator for culturing for 4 h. (4) 100 μl of 20% SDS was added to each well (20 g of sodium lauryl sulfate was dissolved in 50 ml of ddH2O+50 ml of N,N dimethylformamide) at 37° C. for 20 h. (5) The solution was shaken on a horizontal shaker for 5 min. (6) The optical density (OD) was measured at 570 nm (reference wavelength of 490 nm) on a microplate reader.
(6) Effect of ABPPk2 on decrease of hippocampal neuron activity caused by NMDA. Effect of different concentrations of ABPPk2 on hippocampal neuron damage caused by NMDA (100 μM, 30 min). The experiment was divided into 9 experimental groups: a normal group, NMDA (100 μM, 30 min) group (as a control group), ABPPk2 (0.01 μg/ml) group, ABPPk2 (0.1 μg/ml) group, ABPPk2 (0.3 μg/ml) group, ABPPk2 (1 μg/ml) group, ABPPk2 (3 μg/ml) group, ABPPk2 (10 μg/ml) group and MK801 (dizocilpine, 10 μM) group (as a positive control group). Three administration ways were adopted for ABPPk2: (1) ABPPk2 was administered 12 hours before and during the NMDA damage. (2) ABPPk2 was administered during NMDA damage. (3) ABPPk2 was administered during 24 hours of culture after NMDA damage.

[2] = test system: primary cultured SD fetal rat cortical neurons after OGD damage; assay: OGD damage of cortical neurons, Hoechst 33258 staining of apoptotic bodies; assay type: cell-based; conditions: OGD 2 h, 24 h reoxygenation; ABPPk2 8, 40, 200 ng/ml, dose-dependent; BDNF 10 ng/ml
Procedure: The suspension was filtered with a 400-mesh screen, centrifuged at 1000 rpm for 5 min, and blown to form the single cell suspension. DMEM high glucose complete medium (containing 10% fetal bovine serum) was inoculated in a culture dish or culture plate pre-coated with polylysine (PLL) to culture in 5% CO2 incubator with saturated humidity at 37° C. After the cells were cultured for 4 h to adhere to the wall, the cells were cultured with neuron culture medium (neurobasal+2% B27) for 3 d to observe the growth of neurons. The culture medium containing cytarabine (the final concentration of cytarabine was 2.5 μg/ml) was substituted with half quantity to culture for 3d to inhibit the growth of glial cells and miscellaneous cells to obtain purely cultured primary cortical nerve cells. The purity of the cortical neurons was identified by immunocytochemical staining as more than 90%.
After the cortical neurons were cultured to the 7th day, the original culture medium was sucked out, and the cells were rinsed twice with sugar-free DMEM basal medium, for 5 min each time. Each OGD damage group was added with DMEM sugar-free culture medium, placed in a Billups-Rothenberg anaerobic culture chamber, filled with 95% N2/5% CO2 to balance for 15 min, and sealed for 2 h to build an OGD model. […]

With “CLETSGSCIPGAQHNCCSGVCVPLVTLFYGVCY (Achyranthes bidentata Blume) [SEQ ID No: 3]” the “protective effect on NMDA damage of primary hippocampal neurons” value ([1]; overall statement, experimental solution of embodiment 6, concentration and administration way not stated) was “can effectively reduce the decrease of hippocampal neuron activity caused by NMDA damage”.

`C[C@]12N[C@H](Cc3ccccc31)c1ccccc12` [MK801, dizocilpine, reference compound] was tested, and the “hippocampal neuron activity after NMDA damage (MTT)” value (shortened to “hippocampal neuron activity”) ([1]; given 12 h before and during NMDA (100 μM, 0.5 h), ABPPk2 0.1, 0.3 and 1 μg/ml groups) was “can effectively reduce the decrease of hippocampal neuron activity caused by NMDA damage”, the “hippocampal neuron activity” value ([1]; given during 24 h culture after NMDA damage (100 μM, 0.5 h), ABPPk2 0.1-10 μg/ml) was “can effectively reduce the decrease of hippocampal neuron activity caused by NMDA damage” and the “hippocampal neuron activity” value ([1]; given during NMDA damage (100 μM, 0.5 h), ABPPk2 1 and 10 μg/ml groups) was “can effectively reduce the decrease of hippocampal neuron activity caused by NMDA damage”.

B1: BDNF: positive control group, final concentration of 10 ng/ml (protein, UniProt P23560 19-247, looked up)
Neurotrophic factor BDNF …: APMKEANIRGQGGLAYPGVRTHGTLESVNGPKAGSRGLTSLADTFEHVIEELLDEDQKVRPNEENNKDADLYTSRVMLSSQVPLEPPLLFLLEEYKNYLDAANMSMRVRRHSDPARRGELSVCDSISEWVTAADKKTAVDMSGGTVTVLEKVPVSKGQLKQYFYETKCNPMGYTKEGCRGIDKRHWNSQCRTTQSYVRALTMDSKKRIGWRFIRIDTSCVCTLTIKRGR
In the case of B1, the “apoptotic bodies of cortical neuron nuclei” value [2] is reported as “the apoptotic bodies are reduced”.
